Counter-ions that a name gives are not always drawn.
Tests used:
[1] = tested on: urinary excretion of calcium, magnesium, phosphorus; conditions: in the diet at 3 mg/day; cited from earlier work
Cathepsin D [2] = target: T1, Cathepsin D (Mus musculus, UniProt P18242); assay: Mouse hepatic lysosomal cathepsin D activity; format: biochemical
T1 construct: azocasein assay pH 5.0
Excerpt: (§1) 1. Cf1 male mouse hepatic 10% homogenates in 0.25M sucrose+0.001MEDTA,pH 7.2.
(§2) Lysosomal Enzymes - free and total [triton X-100].
(§3) 2. Acid Cathepsin D -azocasein-pH 5.0, hydrolytic azo-peptide produce 366 nm.
Cathepsin azo casein activity -

[3] = tested on: Prostaglandin cyclooxygenase; assay: Human osteoporosis fibroblasts prostaglandin cyclooxygenase activity; format: cell-based; conditions: read-out: Prostaglandin Cyclooxygense IC50, Table XI, 60 min incubation
Trypsin [4] = assay: Human osteoporosis fibroblasts trypsin (BAEE) activity; format: cell-based; conditions: read-out: Trypsin BAEE IC50; Table XI; human osteoporosis fibroblasts, 60 min incubation
Excerpt: (§4) 1. Trypsin- N-benzoyl-L-arginine ethyl ester pH 8.0, hydrolytic product 253 nm.

5'-lipoxygenase = target: T2, 5'-lipoxygenase (Mus musculus, UniProt P48999); assay: Mouse hepatic 5'-lipoxygenase activity; format: biochemical
T2 construct: Cf1 male mouse hepatic 10% homogenates; from tissue; host or cells: CF1 male mouse liver, 10% homogenate
T2 sequence (P48999 1-674): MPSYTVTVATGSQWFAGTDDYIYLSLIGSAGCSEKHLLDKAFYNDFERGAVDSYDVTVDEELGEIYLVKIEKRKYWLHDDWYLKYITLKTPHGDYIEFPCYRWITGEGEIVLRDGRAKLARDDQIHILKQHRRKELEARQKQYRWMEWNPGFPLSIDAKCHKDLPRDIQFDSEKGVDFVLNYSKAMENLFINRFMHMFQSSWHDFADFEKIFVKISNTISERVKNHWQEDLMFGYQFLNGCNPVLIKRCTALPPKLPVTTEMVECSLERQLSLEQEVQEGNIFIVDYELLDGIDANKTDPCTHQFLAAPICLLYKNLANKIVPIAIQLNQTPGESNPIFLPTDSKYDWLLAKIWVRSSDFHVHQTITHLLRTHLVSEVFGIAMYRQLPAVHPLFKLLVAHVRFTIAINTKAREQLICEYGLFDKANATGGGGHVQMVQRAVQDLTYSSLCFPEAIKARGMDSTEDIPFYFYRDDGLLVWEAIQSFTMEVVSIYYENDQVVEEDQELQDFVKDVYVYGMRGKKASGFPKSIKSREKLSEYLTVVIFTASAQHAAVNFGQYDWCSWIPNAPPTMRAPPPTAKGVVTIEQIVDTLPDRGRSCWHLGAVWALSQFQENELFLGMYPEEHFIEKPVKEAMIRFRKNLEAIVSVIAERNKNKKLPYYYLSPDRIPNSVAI
Excerpt: as §1
5'-lipoxygenase Mylari, B.L., et al, J. Med.

[5] = tested on: Prostaglandin cyclooxygenase; assay: Mouse macrophage prostaglandin cyclooxygenase activity; format: cell-based
Excerpt: (§5) 3. Mouse macrophages J774A.1 BALB/c
(§6) Prostaglandin synthetase purified beef seminal vesicle ^3 H arachidonic acid (86.2 Ci/mmol), tlc separation.

Elastase [6] = assay: Mouse macrophage elastase activity; format: cell-based
Cf1 male mice [7] = assay: Writhing reflex, 0.6% acetic acid; format: in vivo; set-up: response vs control in vivo: dose or concentration left out as unconfirmed; conditions: Mus musculus, ip
Aryl sulphatase [8] = assay: Human osteoporosis fibroblasts aryl sulphatase activity; format: cell-based; conditions: read-out: Aryl Sulphatase IC50; Table X; human osteoporosis fibroblasts
Excerpt: (§7) 3. Aryl sulphatase- p-nitrocatechol sulfate, pH
(§8) 5. 8 p-nitro-catechol product 510 nm.

Cathepsin D [9] = target: T3, Cathepsin D (Homo sapiens, UniProt P07339); assay: Human osteoporosis fibroblasts cathepsin D (azo-casein) activity; format: cell-based; conditions: read-out: Cathepsin D IC50; Table X; human osteoporosis fibroblasts, DMEM +10% FCS + P/S
T3 construct: azocasein assay pH 5.0
Excerpt: Osteoporosis Human Fibroblast-CRL-1140, Be SA1

Acid phosphatase [10] = assay: Mouse macrophage acid phosphatase activity; format: cell-based
Acid phosphatase [11] = assay: Human osteoporosis fibroblasts acid phosphatase activity; format: cell-based; conditions: read-out: Acid Phosphatase IC50; Table X; human osteoporosis fibroblasts
Excerpt: (§9) 1. Acid phosphatase -beta glycerol-3-phosphate, pH 5.0, released IP 720 nm.

Aryl sulphatase [12] = assay: Mouse macrophage aryl sulphatase activity; format: cell-based; conditions: read-out: Aryl Sulphatase IC50, 60 min incubation
Sprague Dawley Rats = assay: Anti-inflammatory activity in Sprague Dawley rats; format: in vivo; conditions: Table IV; 8 mg/kg I.P.
[13] = target: Clostridium histolyticum Collagenase Type II; assay: Commercial collagenase type II; format: biochemical; conditions: Table IX; commercial enzyme preparation
Excerpt: (§10) 4. Collagenase II, Clostridium histolyticum, cartilage collagen.

Acid phosphatase [14] = assay: Mouse hepatic lysosomal acid phosphatase activity; format: biochemical; conditions: mouse hepatic, 60 min incubation
Excerpt: as §1, §2, §9
Acid phosphatase activity -

Cathepsin = assay: Human leukocyte cathepsin; format: cell-based; conditions: read-out: Cathepsin IC50; Table XII; human leukocytes, 60 min incubation
Excerpt: 5. Human peripheral leukocytes, RPMI-1788
as §3

Elastase [15] = assay: Human osteoporosis fibroblasts elastase activity; format: cell-based; conditions: read-out: Elastase IC50; Table XI; human osteoporosis fibroblasts, 60 min incubation
Excerpt: (§11) 2. Elastase- N-succinyl-L-alanyl-L-alanine-p-nitroanilide, pH 8.0, p-nitro anilide 410 nm.

Trypsin [16] = assay: Mouse macrophage trypsin (BAEE) activity; format: cell-based
Cathepsin D [17] = target: T1, Cathepsin D; assay: Mouse macrophage cathepsin D activity; format: cell-based; conditions: 60 min incubation
Excerpt: as §5, §3

Aryl sulphatase [18] = assay: Mouse hepatic lysosomal aryl sulphatase activity; format: biochemical; conditions: Table XV, 60 min incubation
Excerpt: as §1, §2, §7, §8

Cf1 male mice [19] = assay: Writhing reflex, 0.6% acetic acid; format: in vivo; conditions: Table XIV; unit inferred; unit assumed
Procedure: Writhing reflex- Cf1 -male mice- 0.6% acetic acid I.P. drugs administered @20 mg/kg/ I.P. 20 min. later - the # of stretches/10 min.
Hendershot, L.C., et al, J.

Cf1 male mice [20] = assay: Hot plate tail flick test; format: in vivo; conditions: Table XIV; unit not given
Elastase [21] = assay: Mouse hepatic elastase activity; format: biochemical; conditions: Table VI, 60 min incubation
Excerpt: as §1, §11
Elastase activity - in vitro

Commercial Collagenase = assay: Commercial collagenase (type not stated); format: biochemical; conditions: Table XVI; 60 min incubation
Excerpt: (§12) 3. Collagenase I, Clostridium histolyticum, bone, skin, tendon, blood vessel, dentine, GI. substrate: rat collagen, N-[propionate-2-3-^3 H] propionylated measured as dpm released.
as §10

[22] = target: Clostridium histolyticum Collagenase Type I; assay: Commercial collagenase type I; format: biochemical; conditions: Table IX; commercial enzyme preparation
Excerpt: as §12

Pg. cyclooxygenase = target: T4, Pg. cyclooxygenase (Sus scrofa, UniProt A0A287ANF9); assay: Porcine seminal vesicles Pg. cyclooxygenase; format: biochemical
T4 construct: Porcine Seminal; from tissue; the methods section prints beef seminal vesicle

Prostaglandin synthetase = target: T5, Prostaglandin synthetase (Bos taurus, UniProt O62664); assay: Prostaglandin synthetase (cyclooxygenase), purified beef seminal vesicle; format: biochemical; conditions: Table IX; commercial enzyme preparation; read-out: Beef Prostaglandin Cyclooxygenase IC50
T5 construct: Prostaglandin synthetase purified beef seminal vesicle; from tissue
T5 sequence (O62664 25-600): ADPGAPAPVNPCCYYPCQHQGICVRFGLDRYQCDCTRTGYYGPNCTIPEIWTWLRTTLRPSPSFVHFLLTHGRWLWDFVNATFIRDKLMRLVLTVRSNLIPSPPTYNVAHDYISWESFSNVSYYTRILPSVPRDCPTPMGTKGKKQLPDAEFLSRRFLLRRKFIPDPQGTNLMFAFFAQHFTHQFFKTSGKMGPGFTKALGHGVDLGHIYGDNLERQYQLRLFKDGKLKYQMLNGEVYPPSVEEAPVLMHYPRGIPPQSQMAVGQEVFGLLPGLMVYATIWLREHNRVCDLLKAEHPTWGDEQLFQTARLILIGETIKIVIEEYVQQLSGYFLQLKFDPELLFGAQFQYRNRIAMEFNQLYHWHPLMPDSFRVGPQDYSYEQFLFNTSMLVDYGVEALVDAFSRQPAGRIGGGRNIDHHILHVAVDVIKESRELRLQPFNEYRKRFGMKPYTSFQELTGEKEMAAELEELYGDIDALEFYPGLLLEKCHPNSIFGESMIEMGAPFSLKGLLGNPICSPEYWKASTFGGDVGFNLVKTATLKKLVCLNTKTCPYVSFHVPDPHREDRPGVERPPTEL
Excerpt: as §6

Cf1 male mice [23] = assay: Anti-inflammatory screen, Winter's test, 2% carrageenan hind foot; format: in vivo; conditions: Table XIV; unit inferred; unit assumed
Procedure: Anti-inflammatory Screen- Cf1 - male mice-Winter's Test 2% carrageenan S.C. plantar surface of hind foot, drugs administered @8 or 10 mg/kg I.P. 2X
Winter, C.A., et al, Proc. Soc.

Trypsin [24] = assay: Mouse hepatic trypsin activity; format: biochemical; conditions: 60 min incubation
Excerpt: as §1, §4

[25] = target: T6, Porcine Pancreatic Elastase (Sus scrofa, UniProt P00772); assay: Porcine pancreatic elastase activity in vitro; format: biochemical; conditions: Table IX; commercial enzyme preparation
T6 construct: purchased; host or cells: porcine pancreas
Excerpt: as §11

T1 sequence (P18242 65-410): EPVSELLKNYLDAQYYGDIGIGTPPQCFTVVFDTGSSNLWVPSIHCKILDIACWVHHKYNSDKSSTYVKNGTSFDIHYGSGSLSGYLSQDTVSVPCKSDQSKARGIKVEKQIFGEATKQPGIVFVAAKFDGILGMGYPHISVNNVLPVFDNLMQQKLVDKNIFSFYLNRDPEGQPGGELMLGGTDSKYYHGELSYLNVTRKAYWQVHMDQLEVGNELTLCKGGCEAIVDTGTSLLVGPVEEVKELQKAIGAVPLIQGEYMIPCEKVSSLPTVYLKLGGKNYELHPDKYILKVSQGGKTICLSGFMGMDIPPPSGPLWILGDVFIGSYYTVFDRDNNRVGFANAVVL
T3 sequence (P07339 65-412): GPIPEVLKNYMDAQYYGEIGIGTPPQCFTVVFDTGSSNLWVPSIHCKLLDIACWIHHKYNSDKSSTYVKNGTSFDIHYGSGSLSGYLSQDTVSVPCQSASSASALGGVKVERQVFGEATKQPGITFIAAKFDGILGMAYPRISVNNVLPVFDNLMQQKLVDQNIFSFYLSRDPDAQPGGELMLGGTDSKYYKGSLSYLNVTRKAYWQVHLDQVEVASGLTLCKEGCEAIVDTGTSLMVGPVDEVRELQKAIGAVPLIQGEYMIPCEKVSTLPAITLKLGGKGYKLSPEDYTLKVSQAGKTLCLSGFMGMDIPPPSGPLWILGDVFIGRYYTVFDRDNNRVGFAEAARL
T4 sequence (A0A287ANF9 25-600): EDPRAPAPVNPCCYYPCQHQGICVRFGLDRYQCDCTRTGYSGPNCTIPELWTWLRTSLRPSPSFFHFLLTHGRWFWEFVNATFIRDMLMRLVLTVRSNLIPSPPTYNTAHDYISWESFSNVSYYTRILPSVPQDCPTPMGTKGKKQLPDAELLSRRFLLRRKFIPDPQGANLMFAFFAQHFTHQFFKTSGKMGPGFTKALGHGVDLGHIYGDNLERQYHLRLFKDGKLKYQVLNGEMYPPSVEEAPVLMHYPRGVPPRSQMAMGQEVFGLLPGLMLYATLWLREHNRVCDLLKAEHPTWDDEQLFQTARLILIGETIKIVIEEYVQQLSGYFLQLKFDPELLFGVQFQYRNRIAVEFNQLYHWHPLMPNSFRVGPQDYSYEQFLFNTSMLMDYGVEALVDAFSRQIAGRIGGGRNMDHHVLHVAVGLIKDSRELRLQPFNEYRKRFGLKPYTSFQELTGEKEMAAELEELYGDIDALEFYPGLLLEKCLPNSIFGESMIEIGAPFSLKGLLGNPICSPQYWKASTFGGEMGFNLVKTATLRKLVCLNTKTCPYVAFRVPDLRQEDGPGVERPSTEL
T6 sequence (P00772 27-266): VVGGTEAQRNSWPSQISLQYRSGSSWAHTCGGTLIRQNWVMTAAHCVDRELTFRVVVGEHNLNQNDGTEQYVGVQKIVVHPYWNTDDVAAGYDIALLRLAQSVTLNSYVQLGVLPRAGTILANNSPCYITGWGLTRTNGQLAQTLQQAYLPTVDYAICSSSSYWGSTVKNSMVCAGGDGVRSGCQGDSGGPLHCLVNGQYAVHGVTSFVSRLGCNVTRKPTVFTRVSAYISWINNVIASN

SMILES: O.O.O.O.O.O.O.O.O.O.[Na+].[Na+].[O-]B1OB2OB([O-])OB(O1)O2 [sodium borate]
- urinary excretion of calcium, magnesium and perhaps phosphorus [1]: blocks the urinary excretion of calcium, magnesium and perhaps phosphorus

SMILES: C[NH+](C)[BH2-]C#N [Compound 10, Dimethylamine-cyanoborane]
- IC50 (Cathepsin D [2]; read-out: Cathepsin D IC50; Table V; mouse hepatic, 60 min incubation): 3.2 µM
- IC50 [3]: 5.58 µM
- IC50 (Trypsin [4]): 6.43 µM
- IC50 (5'-lipoxygenase): 22.9 µM
- IC50 ([5]; read-out: Prostaglandin Cyclooxygenase IC50; Table VIII; mouse macrophages, 60 min incubation): 5.92 µM
- IC50 (Elastase [6]; read-out: Elastase IC50; Table VIII; mouse macrophages, 60 min incubation): 2.53 µM
- response vs control in vivo (Cf1 male mice [7]; read-out: Writhing Reflex Cf1 Mice): 14.7%
- IC50 (Aryl sulphatase [8]): 7.91 µM
- IC50 (Cathepsin D [9]): 1.28 µM
- IC50 (Acid phosphatase [10]; read-out: Acid Phosphatase IC50; Table VII; mouse macrophage cultured cells, 60 min incubation): 1.13 µM
- IC50 (Acid phosphatase [11]): 8.7 µM
- IC50 (Aryl sulphatase [12]; Table VII, mouse macrophage cultured cells): 9 µM
- Anti-Inflammatory Activity Sprague Dawley Rats (Sprague Dawley Rats): 61 % Control
- IC50 [13]: 106 µM
- IC50 (Acid phosphatase [14]; Table V): 8.9 µM
- IC50 (Cathepsin): 53.8 µM
- IC50 (Elastase [15]): 3.36 µM
- IC50 (Trypsin [16]; read-out: Trypsin BAEE IC50; Table VIII; mouse macrophages, 60 min incubation): 2.44 µM

SMILES: C[NH+](C)[BH2-]C(=O)O [Compound 23, Dimethylamine-carboxyborane, sodium salt]
- IC50 (Cathepsin D [2]; Table V; mouse hepatic, 60 min incubation; read-out: Cathepsin D IC50): 3.76 µM
- IC50 (Cathepsin D [2]; Table XV; mouse hepatic, 60 min incubation; read-out: Cathepsin D IC50): 7.65 µM
- IC50 (Cathepsin D [17]; Table VII, mouse macrophage cultured cells, DMEM +10% FCS +P/S, read-out: Cathepsin D IC50): 6.39 µM
- IC50 (Cathepsin D [17]; Table XVII, mouse macrophage, read-out: Cathepsin D pH 5.0 IC50): 2.28 µM
- IC50 (Aryl sulphatase [18]): 2.83 µM
- Writhing Reflex Mice (Cf1 male mice [19]): 70.4%
- Tail Flick Mice (Cf1 male mice [20]): 156
- IC50 ([5]; Table VIII; mouse macrophages, 60 min incubation; read-out: Prostaglandin Cyclooxygenase IC50): 2.91 µM
- IC50 ([5]; Table XVIII; mouse macrophage, 60 min incubation; read-out: Prostaglandin Cyclooxygenase IC50): 2.07 µM
- IC50 (Elastase [6]; Table VIII; mouse macrophages, 60 min incubation; read-out: Elastase IC50): 2.67 µM
- IC50 (Elastase [6]; Table XVIII; mouse macrophage, 60 min incubation; read-out: Elastase IC50): 6.35 µM
- IC50 (Elastase [21]): 25.9 µM
- response vs control in vivo at 20 mg/kg (Cf1 male mice [7]; Table IV): 2%
- IC50 (Commercial Collagenase): 506 µM
- IC50 [22]: 667 µM
- IC50 (Pg. cyclooxygenase): 3.1 µM
- IC50 (Acid phosphatase [10]; Table VII; mouse macrophage cultured cells, 60 min incubation; read-out: Acid Phosphatase IC50): 4.75 µM
- IC50 (Acid phosphatase [10]; Table XVII; mouse macrophage, 60 min incubation; read-out: Acid Phosphatase IC50): 1.42 µM
- IC50 (Prostaglandin synthetase): 3.25 µM
- IC50 (Aryl sulphatase [12]; Table XVII, mouse macrophage): 1.6 µM
- Anti-Inflammation Cf1 Mice (Cf1 male mice [23]): 68.5%
- Anti-Inflammatory Activity Sprague Dawley Rats (Sprague Dawley Rats): 55 % Control
- IC50 (Trypsin [24]; Table VI, mouse hepatic, read-out: Trypsin IC50): 0.83 µM
- IC50 (Trypsin [24]; Table XVI, read-out: Mouse Hepatic Trypsin IC50): 9.95 µM
- IC50 (Acid phosphatase [14]; Table V): 7.89 µM
- IC50 (Acid phosphatase [14]; Table XV): 3.58 µM
- IC50 [25]: 37.3 µM
- IC50 (Trypsin [16]; Table VIII; mouse macrophages, 60 min incubation; read-out: Trypsin BAEE IC50): 3.1 µM
- IC50 (Trypsin [16]; Table XVIII; mouse macrophage, 60 min incubation; read-out: Trypsin BAEE IC50): 2.21 µM

Reference: patent US5312816A, “Method of combatting osteoporosis in mammalian subjects, utilizing organic boron compounds” (priority 1993, dated 1994)
